According to patent publication US12421211B2, “Heterocyclic compounds” (Hoffmann-La Roche Inc., priority 2021, dated 2025):
Structures can show the parent of a compound that is named as a salt.

Test system: Acinetobacter baumannii ATCC17961
Assay: Antimicrobial susceptibility testing: 90% growth inhibitory concentration (IC90) determination
Format: cell-based
Conditions: Acinetobacter baumannii, ATCC17961, 16 h, 90% growth inhibitory concentration, Acinetobacter baumannii ATCC17961, Iso-Sensitest broth, OD 600 nm over 16 h; read-out: ATCC 17961 IC90
Outline: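 Growth inhibition derived in log phase from OD600 kinetics (every 20 minutes, 16h, 35±2° C) of ATCC17961 in Iso-Sensitest medium, inoculum ~5×10^5 CFU/ml. Compounds tested as twofold series, 10 points (e.g. 50 to 0.097 μM final); IC90 and IC50 reported.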

Compound | IC90 [nM]
COCCn1cc(-c2ccc(-c3cnc(C(=O)Nc4ccc(C(=O)N5CCN(C(=O)[C@H]6C[C@@H](O)C[N+]6(C)C)CC5)c(Cl)c4)n3C)c(F)c2F)c(C)n1 [Example D9, N-[3-chloro-4-[4-[(2R,4R)-4-hydroxy-1,1-dimethyl-pyrrolidin-1-ium-2-carbonyl]piperazine-1-carbonyl]phenyl]-5-[2,3-difluoro-4-[1-(2-methoxyethyl)-3-methyl-pyrazol-4-yl]phenyl]-1-methyl-imidazole-2-carboxamide; formate] | 300
COCCn1cc(-c2ccc(-c3cnc(C(=O)Nc4ccc(C(=O)N5CCN(C(=O)[C@@H]6C[C@H](O)C[N+]6(C)C)CC5)c(Cl)c4)n3C)c(F)c2F)c(C)n1 [Example D10, N-[3-chloro-4-[4-[(2S,4S)-4-hydroxy-1,1-dimethyl-pyrrolidin-1-ium-2-carbonyl]piperazine-1-carbonyl]phenyl]-5-[2,3-difluoro-4-[1-(2-methoxyethyl)-3-methyl-pyrazol-4-yl]phenyl]-1-methyl-imidazole-2-carboxamide; formate] | 210
COCCCn1cc(-c2ccc(-c3cnc(C(=O)Nc4ccc(C(=O)N5CCN(C(=O)[C@@H]6C[C@@H](O)C[N+]6(C)C)CC5)c(Cl)c4)n3C)c(F)c2F)c(C)n1 [Example D11, N-[3-chloro-4-[4-[(2S,4R)-4-hydroxy-1,1-dimethyl-pyrrolidin-1-ium-2-carbonyl]piperazine-1-carbonyl]phenyl]-5-[2,3-difluoro-4-[1-(3-methoxypropyl)-3-methyl-pyrazol-4-yl]phenyl]-1-methyl-imidazole-2-carboxamide; formate] | 270
COCCCn1ncc(-c2ccc(-c3cnc(C(=O)Nc4ccc(C(=O)N5CCN(C(=O)[C@@H]6C[C@@H](O)C[N+]6(C)C)CC5)c(Cl)c4)n3C)c(F)c2F)c1C [Example D12, N-[3-chloro-4-[4-[(2S,4R)-4-hydroxy-1,1-dimethyl-pyrrolidin-1-ium-2-carbonyl]piperazine-1-carbonyl]phenyl]-5-[2,3-difluoro-4-[1-(3-methoxypropyl)-5-methyl-pyrazol-4-yl]phenyl]-1-methyl-imidazole-2-carboxamide; formate] | 200
COCCCn1cc(-c2ccc(-c3cnc(C(=O)Nc4ccc(C(=O)N5CCN(C(=O)[C@@H]6COCC[N+]6(C)C)CC5)c(Cl)c4)n3C)c(F)c2F)c(C)n1 [Example D13, N-[3-chloro-4-[4-[(3S)-4,4-dimethylmorpholin-4-ium-3-carbonyl]piperazine-1-carbonyl]phenyl]-5-[2,3-difluoro-4-[1-(3-methoxypropyl)-3-methyl-pyrazol-4-yl]phenyl]-1-methyl-imidazole-2-carboxamide; formate] | 340
COCCn1ncc(-c2ccc(-c3cnc(C(=O)Nc4ccc(C(=O)N5CCC(CN6CC[N+](C)(C)CC6=O)CC5)c(Cl)c4)n3C)c(F)c2F)c1C [Example D14, N-[3-chloro-4-[4-[(4,4-dimethyl-2-oxo-piperazin-4-ium-1-yl)methyl]piperidine-1-carbonyl]phenyl]-5-[2,3-difluoro-4-[1-(2-methoxyethyl)-5-methyl-pyrazol-4-yl]phenyl]-1-methyl-imidazole-2-carboxamide; 2,2,2-trifluoroacetate] | 110
Cc1n[nH]cc1-c1ccc(-c2cnc(C(=O)Nc3ccc(C(=O)N4CCN(C(=O)C[N+]5(C)CCCC5)CC4)c(Cl)c3)n2C)c(F)c1F [Example D15, N-[3-chloro-4-[4-[2-(1-methylpyrrolidin-1-ium-1-yl)acetyl]piperazine-1-carbonyl]phenyl]-5-[2,3-difluoro-4-(3-methyl-1H-pyrazol-4-yl)phenyl]-1-methyl-imidazole-2-carboxamide; formate] | 100
Cc1n[nH]cc1-c1ccc(-c2cnc(C(=O)Nc3ccc(C(=O)N4CCN(C(=O)C5CC[N+](C)(C)CC5)CC4)c(Cl)c3)n2C)c(F)c1F [Example D16, N-[3-chloro-4-[4-(1,1-dimethylpiperidin-1-ium-4-carbonyl)piperazine-1-carbonyl]phenyl]-5-[2,3-difluoro-4-(3-methyl-1H-pyrazol-4-yl)phenyl]-1-methyl-imidazole-2-carboxamide; formate] | 150
COCCn1cc(-c2ccc(-c3cnc(C(=O)Nc4ccc(C(=O)N5CCN(C(=O)CC6(O)CC[N+](C)(C)CC6)CC5)c(Cl)c4)n3C)c(F)c2F)c(C)n1 [Example D17, N-[3-chloro-4-[4-[2-(4-hydroxy-1,1-dimethyl-piperidin-1-ium-4-yl)acetyl]piperazine-1-carbonyl]phenyl]-5-[2,3-difluoro-4-[1-(2-methoxyethyl)-3-methyl-pyrazol-4-yl]phenyl]-1-methyl-imidazole-2-carboxamide; formate] | 260
COCCn1ncc(-c2ccc(-c3cnc(C(=O)Nc4ccc(C(=O)N5CCN(C(=O)C6(N)CC[N+](C)(C)CC6)CC5)c(Cl)c4)n3C)c(F)c2F)c1C [Example D20, N-[4-[4-(4-amino-1,1-dimethyl-piperidin-1-ium-4-carbonyl)piperazine-1-carbonyl]-3-chloro-phenyl]-5-[2,3-difluoro-4-[1-(2-methoxyethyl)-5-methyl-pyrazol-4-yl]phenyl]-1-methyl-imidazole-2-carboxamide; formate] | 64
Cc1n[nH]cc1-c1ccc(-c2cnc(C(=O)Nc3ccc(C(=O)N4CCC(CN5CC[N+](C)(C)CC5=O)CC4)c(Cl)c3)n2C)c(F)c1F [Example D21, N-[3-chloro-4-[4-[(4,4-dimethyl-2-oxo-piperazin-4-ium-1-yl)methyl]piperidine-1-carbonyl]phenyl]-5-[2,3-difluoro-4-(3-methyl-1H-pyrazol-4-yl)phenyl]-1-methyl-imidazole-2-carboxamide; formate] | 200
COCCn1cc(-c2ccc(-c3cnc(C(=O)Nc4ccc(C(=O)N5CCC(NC(=O)[C@@H]6C[C@@H](O)CN6)CC5)c(Cl)c4)n3C)c(F)c2F)c(C)n1 [Example D23, N-[3-chloro-4-[4-[[(2S,4R)-4-hydroxypyrrolidine-2-carbonyl]amino]piperidine-1-carbonyl]phenyl]-5-[2,3-difluoro-4-[1-(2-methoxyethyl)-3-methyl-pyrazol-4-yl]phenyl]-1-methyl-imidazole-2-carboxamide; formic acid] | 680

Next, values leading:

IC90 [nM] | Compound
73 | COCCn1ncc(-c2ccc(-c3cnc(C(=O)Nc4ccc(C(=O)N5CCN(C(=O)C6(O)CCNCC6)CC5)c(Cl)c4)n3C)c(F)c2F)c1C [Example D24, N-[3-chloro-4-[4-(4-hydroxypiperidine-4-carbonyl)piperazine-1-carbonyl]phenyl]-5-[2,3-difluoro-4-[1-(2-methoxyethyl)-5-methyl-pyrazol-4-yl]phenyl]-1-methyl-imidazole-2-carboxamide; formic acid]
51 | COCCn1ncc(-c2ccc(-c3cnc(C(=O)Nc4ccc(C(=O)N5CCN(C(=O)C6CCNCC6O)CC5)c(Cl)c4)n3C)c(F)c2F)c1C (stereo not shown) [Example D25, N-[3-chloro-4-[4-(3-hydroxypiperidine-4-carbonyl)piperazine-1-carbonyl]phenyl]-5-[2,3-difluoro-4-[1-(2-methoxyethyl)-5-methyl-pyrazol-4-yl]phenyl]-1-methyl-imidazole-2-carboxamide; formic acid]
190 | COCCn1ncc(-c2ccc(-c3cnc(C(=O)Nc4ccc(C(=O)N5CCN(C(=O)[C@@H]6CCC(=O)N6)CC5)c(Cl)c4)n3C)c(F)c2F)c1C [Example D26, N-[3-chloro-4-[4-[(2S)-5-oxopyrrolidine-2-carbonyl]piperazine-1-carbonyl]phenyl]-5-[2,3-difluoro-4-[1-(2-methoxyethyl)-5-methyl-pyrazol-4-yl]phenyl]-1-methyl-imidazole-2-carboxamide; 2,2,2-trifluoroacetic acid]
230 | COCCn1ncc(-c2ccc(-c3cnc(C(=O)Nc4ccc(C(=O)N5CCN(C(=O)C6CCNC(=O)C6)CC5)c(Cl)c4)n3C)c(F)c2F)c1C (stereo not shown) [Example D27, N-[3-chloro-4-[4-(2-oxopiperidine-4-carbonyl)piperazine-1-carbonyl]phenyl]-5-[2,3-difluoro-4-[1-(2-methoxyethyl)-5-methyl-pyrazol-4-yl]phenyl]-1-methyl-imidazole-2-carboxamide; 2,2,2-trifluoroacetic acid]
30 | COCCn1ncc(-c2ccc(-c3cnc(C(=O)Nc4ccc(C(=O)N5CCN(C(=O)CN6CCCC6)CC5)c(Cl)c4)n3C)c(F)c2F)c1C [Example D28, N-[3-chloro-4-[4-(2-pyrrolidin-1-ylacetyl)piperazine-1-carbonyl]phenyl]-5-[2,3-difluoro-4-[1-(2-methoxyethyl)-5-methyl-pyrazol-4-yl]phenyl]-1-methyl-imidazole-2-carboxamide; 2,2,2-trifluoroacetic acid]
240 | COCCn1ncc(-c2ccc(-c3cnc(C(=O)Nc4ccc(C(=O)N5CCN(C(=O)C67CC(N)(C6)C7)CC5)c(Cl)c4)n3C)c(F)c2F)c1C [Example D30, N-[4-[4-(3-aminobicyclo[1.1.1]pentane-1-carbonyl)piperazine-1-carbonyl]-3-chloro-phenyl]-5-[2,3-difluoro-4-[1-(2-methoxyethyl)-5-methyl-pyrazol-4-yl]phenyl]-1-methyl-imidazole-2-carboxamide; 2,2,2-trifluoroacetic acid]
220 | COCCn1cc(-c2ccc(-c3cnc(C(=O)Nc4ccc(C(=O)N5CCN(C(=O)[C@@H]6C[C@@H](O)CN6)CC5)c(Cl)c4)n3C)c(F)c2F)c(C)n1 [Example D31, N-[3-chloro-4-[4-[(2S,4R)-4-hydroxypyrrolidine-2-carbonyl]piperazine-1-carbonyl]phenyl]-5-[2,3-difluoro-4-[1-(2-methoxyethyl)-3-methyl-pyrazol-4-yl]phenyl]-1-methyl-imidazole-2-carboxamide; formic acid]
